Laboratory results from patent US20240199542A1, “SUBSTITUTED PYRROLIDIN-2-ONES, SALTS THEREOF AND THEIR USE AS HERBICIDALLY ACTIVE SUBSTANCES” (Bayer Aktiengesellschaft, priority 2021, published 2024).

Assays:
Format in all cases: in vivo
Brassica napus (BRSNW) [1] = experiment: Post-emergence effects on crop plants; settings: crop plant Brassica napus (BRSNW)
From the text: (§1) Seeds of mono- and dicotyledonous weed plants and crop plants were sown, in plastic or organic planting pots, in sandy loam, covered with soil and grown in a greenhouse under controlled growth conditions. 2 to 3 weeks after sowing, the test plants were sprayed in the single-leaf stage. The compounds according to the invention, formulated in form of wettable powders (WP) or as emulsifiable concentrates (EC), were sprayed onto the green plant parts as aqueous suspension or emulsion, with the addition of 0.5% of an additive, at an application rate of 600 1 of water/ha (converted). The test plants were placed in the greenhouse for ca. 3 weeks under optimum growth conditions, and then the effect of the preparations was assessed visually in comparison with untreated controls (herbicidal effect in percent (%): 100% effect=plants have died off, 0% effect=as control plants).
(§2) Tables D1 to D3 below show the effects of selected compounds of the general formula (I) according to table 1 on various crop plants and an application rate corresponding to 320 g/ha or below obtained by the experimental procedure mentioned above in biology section B.

Zea Mays (ZEAMX) [2] = experiment: Post-emergence effects on crop plants; settings: crop plant
From the text: as §1, §2

Glycine max (GLXMA) [3] = experiment: Post-emergence effects on crop plants; settings: 320 g/ha, crop plant
From the text: as §1, §2

[4] = tested on: Polygonum convolvulus (POLCO); experiment: Herbicidal post-emergence action; settings: 1280 g/ha, assessed after ca. 3 weeks
In short: (§3)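 Visual % herbicidal effect versus untreated controls, scored ~3 weeks after spraying; 100% = dead, 0% = like control. Single-leaf-stage greenhouse plants, sprayed with WP/EC in aqueous spray + 0.5% additive, 600 l/ha, at 1280 or 320 g/ha.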

Setaria viridis (SETVI) [5] = experiment: Herbicidal post-emergence action; settings: 1280 g/ha, assessed after ca. 3 weeks
In short: as §3

[6] = tested on: Digitaria sanguinalis (DIGSA); experiment: Herbicidal post-emergence action; settings: assessed after ca. 3 weeks
In short: as §3

Stellaria media (STEME) = experiment: Herbicidal post-emergence action; settings: 1280 g/ha, assessed after ca. 3 weeks
In short: as §3

[7] = tested on: Lolium multiflorum (LOLMU); experiment: Herbicidal post-emergence action; settings: 1280 g/ha, assessed after ca. 3 weeks
In short: as §3

Avena fatua (AVEFA) [8] = experiment: Herbicidal post-emergence action; settings: 1280 g/ha, assessed after ca. 3 weeks
In short: as §3

Lolium rigidum (LOLRI) [9] = experiment: Herbicidal post-emergence action; settings: 320 g/ha, assessed after ca. 3 weeks
In short: as §3

[10] = tested on: Echinochloa crus-galli (ECHCG); experiment: Herbicidal post-emergence action; settings: 1280 g/ha, assessed after ca. 3 weeks
In short: as §3

[11] = tested on: Cyperus esculentus (CYPES); experiment: Herbicidal pre-emergence action; settings: 1280 g/ha, graded after ca. 3 weeks
In short: (§4)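 Percent herbicidal effect, from 0% (as untreated) to 100% (plants dead), was graded visually about 3 weeks after treatment under optimal greenhouse conditions. Compounds, as WP or EC with 0.5% additive in 600 l water/ha at up to 1280 g/ha, were applied to covering soil over freshly sown seeds in sandy loam.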

[12] = tested on: Polygonum convolvulus (POLCO); experiment: Herbicidal pre-emergence action; settings: graded after ca. 3 weeks
In short: as §4

Setaria viridis (SETVI) [13] = experiment: Herbicidal pre-emergence action; settings: graded after ca. 3 weeks
In short: as §4

[14] = tested on: Digitaria sanguinalis (DIGSA); experiment: Herbicidal pre-emergence action; settings: graded after ca. 3 weeks
In short: as §4

[15] = tested on: Lolium multiflorum (LOLMU); experiment: Herbicidal pre-emergence action; settings: 1280 g/ha, graded after ca. 3 weeks
In short: as §4

Avena fatua (AVEFA) [16] = experiment: Herbicidal pre-emergence action; settings: 1280 g/ha, graded after ca. 3 weeks
In short: as §4

[17] = tested on: Alopecurus myosuroides (ALOMY); experiment: Herbicidal pre-emergence action; settings: 1280 g/ha, graded after ca. 3 weeks
In short: as §4

Viola tricolor (VIOTR) = experiment: Herbicidal pre-emergence action; settings: 320 g/ha, graded after ca. 3 weeks
In short: as §4

Lolium rigidum (LOLRI) [18] = experiment: Herbicidal pre-emergence action; settings: 320 g/ha, graded after ca. 3 weeks
In short: as §4

[19] = tested on: Echinochloa crus-galli (ECHCG); experiment: Herbicidal pre-emergence action; settings: 1280 g/ha, graded after ca. 3 weeks
In short: as §4

Brassica napus (BRSNW) [20] = experiment: Pre-emergence effects on crop plants; settings: 320 g/ha, crop plant
From the text: (§5) Seeds of mono- and dicotyledonous weed plants and crop plants were sown, in plastic or organic planting pots, in sandy loam and covered with soil. The compounds according to the invention, formulated in the form of wettable powders (WP) or as emulsifiable concentrates (EC), were applied to the surface of the covering soil as aqueous suspension or emulsion, with the addition of 0.5% of an additive, at an application rate of 600 1 of water/ha (converted).
(§6) Following treatment, the pots were placed in a greenhouse and kept under optimum growth conditions for the test plants. The visual grading of the damage to the test plants was carried out after ca. 3 weeks in comparison to untreated controls (herbicidal effect in percent (%): 100% effect=plants have died off, 0% effect=as control plants).
(§7) Tables C1 to C3 below show the effects of selected compounds of the general formula (I) according to table 1 on various crop plants and an application rate corresponding to 320 g/ha or below obtained by the experimental procedure mentioned above in biology section A.

Zea Mays (ZEAMX) [21] = experiment: Pre-emergence effects on crop plants; settings: crop plant
From the text: as §5, §6, §7

Glycine max (GLXMA) [22] = experiment: Pre-emergence effects on crop plants; settings: 320 g/ha, crop plant
From the text: as §5, §6, §7

[23] = tested on: Amaranthus retroflexus (AMARE); experiment: Herbicidal pre-emergence action; settings: 1280 g/ha, graded after ca. 3 weeks
In short: as §4

[24] = tested on: Cyperus esculentus (CYPES); experiment: Herbicidal post-emergence action; settings: 1280 g/ha, assessed after ca. 3 weeks
In short: as §3

[25] = tested on: Alopecurus myosuroides (ALOMY); experiment: Herbicidal post-emergence action; settings: 1280 g/ha, assessed after ca. 3 weeks
In short: as §3

Poa annua (POAAN) [26] = experiment: Herbicidal post-emergence action; settings: assessed after ca. 3 weeks
In short: as §3

Poa annua (POAAN) [27] = experiment: Herbicidal pre-emergence action; settings: graded after ca. 3 weeks
In short: as §4

| Structure (SMILES) | post-emergence activity against BRSNW (Brassica napus (BRSNW) [1]; application rate 80 g/ha) [%] | post-emergence activity against GLXMA (crop damage) (Glycine max (GLXMA) [3]) [%] | Post-emergence activity against SETVI (Setaria viridis (SETVI) [5]) [%] | Post-emergence activity against DIGSA ([6]; 320 g/ha) [%] | Post-emergence activity against LOLMU [7] [%] | Post-emergence activity against AVEFA (Avena fatua (AVEFA) [8]) [%] | Post-emergence activity against LOLRI (Lolium rigidum (LOLRI) [9]) [%] | Post-emergence activity against ECHCG [10] [%] | Pre-emergence activity against SETVI (Setaria viridis (SETVI) [13]; 1280 g/ha) [%] | Pre-emergence activity against DIGSA ([14]; 320 g/ha) [%] | Pre-emergence activity against LOLMU [15] [%] | Pre-emergence activity against AVEFA (Avena fatua (AVEFA) [16]) [%] | Pre-emergence activity against ALOMY [17] [%] | Pre-emergence activity against VIOTR (Viola tricolor (VIOTR)) [%] | Pre-emergence activity against LOLRI (Lolium rigidum (LOLRI) [18]) [%] | Pre-emergence activity against ECHCG [19] [%] | pre-emergence activity against BRSNW (crop damage) (Brassica napus (BRSNW) [20]) [%] | pre-emergence activity against GLXMA (crop damage) (Glycine max (GLXMA) [22]) [%] | further results |
| --- | --- | --- | --- | --- | --- | --- | --- | --- | --- | --- | --- | --- | --- | --- | --- | --- | --- | --- | --- |
| COCCOC(=O)CC1CCC(=O)N1Cc1cccc(F)c1F (racemic) [Example I-015] | 0 | 0 | 90 | 80 | 80 | 90 | 80 | 100 | 90 | 100 | 80 | 100 | 90 | 90 | 80 | 90 | 20 | 0 | post-emergence activity against ZEAMX (crop damage) (Zea Mays (ZEAMX) [2]; 320 g/ha): 0%; Post-emergence activity against POLCO [4]: 80%; Post-emergence activity against STEME (Stellaria media (STEME)): 90%; Pre-emergence activity against CYPES [11]: 80%; Pre-emergence activity against POLCO ([12]; 1280 g/ha): 80%; pre-emergence activity against ZEAMX (crop damage) (Zea Mays (ZEAMX) [21]; 320 g/ha): 0% |
| COC(=O)C1(NC(=O)CC2CCC(=O)N2Cc2cccc(F)c2F)CC1 (racemic) [Example I-048] |  |  |  |  |  |  |  |  |  |  | 80 | 90 | 80 |  |  |  |  |  | Pre-emergence activity against AMARE [23]: 90% |
| O=C(O)CC1CCC(=O)N1Cc1cccc(F)c1F (single isomer, unassigned) [Example I-014] | 0 | 0 | 90 | 80 | 80 | 80 | 80 | 90 |  | 100 | 90 | 100 | 100 | 90 | 90 | 80 | 0 | 0 | post-emergence activity against ZEAMX (crop damage) (Zea Mays (ZEAMX) [2]; 80 g/ha): 0%; Post-emergence activity against CYPES [24]: 80%; Post-emergence activity against ALOMY [25]: 80%; Pre-emergence activity against POLCO ([12]; 320 g/ha): 90%; Pre-emergence activity against SETVI (Setaria viridis (SETVI) [13]; 320 g/ha): 90%; pre-emergence activity against ZEAMX (crop damage) (Zea Mays (ZEAMX) [21]; 80 g/ha): 0% |
| O=C(O)CC1CCC(=O)N1Cc1ccc(F)c(F)c1F (stereo not shown) [Example I-192, [5-Oxo-1-(2,3,4-trifluorobenzyl)pyrrolidin-2-yl]acetic acid] |  |  |  |  |  |  |  | 90 | 90 | 90 |  |  | 90 |  | 90 | 80 |  |  | post-emergence activity against BRSNW (Brassica napus (BRSNW) [1]; application rate 320 g/ha): 0%; Post-emergence activity against DIGSA ([6]; 1280 g/ha): 90%; Post-emergence activity against POAAN (Poa annua (POAAN) [26]; 320 g/ha): 100%; Post-emergence activity against POAAN (Poa annua (POAAN) [26]; 1280 g/ha): 100%; Pre-emergence activity against DIGSA ([14]; 1280 g/ha): 90%; Pre-emergence activity against POAAN (Poa annua (POAAN) [27]; 320 g/ha): 100%; Pre-emergence activity against POAAN (Poa annua (POAAN) [27]; 1280 g/ha): 100% |
